This is an account of results in patent US9085550B2, “Ligands for estrogen related receptors and methods for synthesis of said ligands” (CITY OF HOPE, priority 2005, dated 2015).

Structures are written as SMILES.

For data set [1], the system named is ERR. Briefly: GAL4-ERR reporter assay in CV-1 cells, potency with versus without PGC-1a. It is filed as cell-based. The conditions noted are these: activated ERR at lower doses in the presence of PGC-1a. The method, then: Additional compounds were tested for their effects on ERR activation (Tables 3-6). DY159, DY162, DY163 and DY164 as well as DY131 can activate all three ERRs (ERRα/β/γ) in the presence of PGC-1a. […] Therefore, these compounds have two novel features yet to be reported: a) they are selective ERR modulators or coactivator-selective ligands, i.e., they activate ERR better in the presence of PGC-1a then the other coactivators that are normally present in CV-1 cells; and b) these are the first synthetic compounds reported to ACTIVATE ERRα. Previously reported compounds repress the constitutive activity of ERRα (see Willy et al., supra).
Referring to Tables 1-6, cell based transactivation assays were performed in CV-1 cells as described. See Wang, H., Chen, J., Hollister, K., Sowers, L. C., Forman, B. M., Endogenous bile acids are ligands for the nuclear receptor FXR/BAR, Mol Cell 1999, 3, 543-553. ERR activity was assayed with a GAL4 reporter construct and fusion proteins containing the ligand binding domains of human ERRα, human ERR β and mouse ERRγ linked to the DNA binding domain of yeast GAL4. Human ERα and ERβ were examined as full-length proteins using an estrogen receptor responsive reporter construct.
To test the effect of the compounds on ERR and ER, CV-1 cells were transiently transfected with expression vectors for the receptors along with appropriate reporter constructs according to methods known in the art. The receptors to be tested were expressed in CV-1 cells. Suitable reporter gene constructs are well known to skilled workers in the fields of biochemistry and molecular biology. All transfections additionally contained an expression vector with a cytomegalovirus promoter (pCMV-β-gal) as an internal control. Suitable constructs for use in these studies may conveniently be cloned into a cytomegalovirus expression vector (pCMV). For example, pCMV-β-gal contains the E. coli β-galactosidase gene expressed under control of the cytomegalovirus promoter/enhancer. Other vectors known in the art can be used in the methods of the present invention. […]
In general terms: A reporter such as luciferase makes a cellular process visible.

The subject of data set [2] is estrogen receptor responsive reporter construct. Briefly: Estrogen receptor responsive reporter in CV-1 cells without receptor (control of Table 1). It is filed as cell-based. The conditions noted are these: Table 1 second block. The method, then:
Human ERα and ERβ were examined as full-length proteins using an estrogen receptor responsive reporter construct.
Suitable reporter gene constructs are well known to skilled workers in the fields of biochemistry and molecular biology. […] Other vectors known in the art can be used in the methods of the present invention.
CV-1 cells for the activation assays were grown in Dulbecco's modified Eagle's medium supplemented with 10% resin charcoal-stripped fetal bovine serum, 50 U/ml penicillin G and 50 μg/ml streptomycin sulfate (DMEM-FBS) at 37° C. in 5% CO2. One day prior to transfection, cells were plated to 50-80% confluence using phenol red free DMEM-FBS.

Take `Cc1cccc(C=NNC(=O)c2ccc(O)cc2)c1` [DY159, 4-Hydroxy-benzoic acid (3-methyl-benzylidene)-hydrazide]: the melting point came to 241.9 °C. The “Potency of ERR activation with versus without PGC-1a” value (from here on “Potency … with versus without PGC-1a”) in data set [1] is listed as “more potent activators in the presence of PGC-1a than without”.
Take `O=C(NN=Cc1ccccc1)c1ccc(O)cc1` [DY162, 4-Hydroxy-benzoic acid benzylidene-hydrazide]: in data set [1], the “Potency … with versus without PGC-1a” value is “more potent activators in the presence of PGC-1a than without”.
For `CCN(CC)c1ccc(C=NNC(=O)c2ccc(O)cc2)cc1` [DY131, 4-Hydroxy-benzoic acid (4-diethylamino-benzylidene)-hydrazide], the “Potency … with versus without PGC-1a” value in data set [1] was “more potent activators in the presence of PGC-1a than without”. Further, the “Fold activation, Receptor — (second block)” value in data set [2] (3 μM) was 1.0 fold; in data set [2] (10 μM) it was 1.1 fold; in data set [2] (30 μM), 1.0 fold.

For orientation: melting point means the temperature of the solid-liquid transition.
